Data from US20130150363A1, “Method of Treating Cancer Using a cMET and AXL Inhibitor and an ErbB Inhibitor” (GlaxoSmithKline, priority 2008, published 2013).
pIC50: −log10 of the molar value.

Legend:
BT474-J4 cells = assay: Cell apoptosis assays (Cell Death ELISA, Caspase-Glo 3/7), BT474-J4; format: cell-based, human; conditions: BT474-J4, presence of HGF (FIG. 4, FIG. 5B)
Procedure: Cell apoptosis was measured by both a cell death ELISA method, which measures DNA fragmentation, a hallmark of apoptosis; and Caspase-Glo® 3/7 assay which detects the activity of caspase 3/7, one of the execution enzymes for apoptosis in cells.
The Cell Death ELISA^Plus kit (Roche, Mannheim, Germany) was used according to the manufacturer's instructions. Cells were seeded in 96-well plates at 10,000 per well. After 24 h, cells were dosed and grown for an additional 48 h in RPMI 1640 with 10% FBS in 5% CO2 at 37° C. Cytoplasmic fractions of control and treated cells were transferred into streptavidin-coated 96-well plates and incubated with biotinylated mouse antihistone antibody and peroxidase-conjugated mouse anti-DNA antibody at room temperature for 2 h. Absorbance was determined at 405-490 nm using a Spectra Max Gemini microplate reader (Molecular Devices, Sunnyvale, Calif.).
The Caspase-Glo® 3/7 assay (Promega) is a homogeneous luminescent assay that measures caspase-3 and -7 activities. Cells were seeded in 96-well plates at 5,000 per well. […] Caspase 3/7 activity was detected by adding luminogenic caspase-3/7 substrate, which contains the tetrapeptide sequence DEVD, in a reagent optimized for caspase activity, luciferase activity and cell lysis, according to the manufacturer's instructions.

[1] = tested on: N87 gastric carcinoma cells; assay: Cell growth inhibition (CellTiter-Glo), N87; format: cell-based; conditions: Homo sapiens, 72 h, 3 days
From the text: Esophageal carcinoma cell line OE33 was purchased from ECACC European Collection of Cell Cultures (UK). Breast cancer cell line JIMT-1 and gastric carcinoma cell line MKN-45 were purchased from Deutsche Sammlung von Mikroorganismen and Zellkulturen GmbH (Germany); KPL-4, a human breast cancer cell line was kindly provided by Prof. J Kurebayashi (Kawasaki Medical School, Kurashiki, Japan). […] The LICR-LON-HN5 head and neck carcinoma cell line (HN5) was a gift from the Institute of Cancer Research, Surrey, U.K. HN5C12 was developed by single-cell cloning of HN5 followed by exposure to increasing concentrations of lapatinib. […] Cell growth inhibition was determined via CellTiter-Glo cell viability assays. […] BT474-J4 and HN5C12 were washed with PBS and plated in their culture media without lapatinib. […] ATP levels were determined by adding Cell Titer Glo0 (Promega), incubating for 20 minutes then the luminescent signal was read on the SpectraMax M5 plate with a 0.5 second integration time. Cell growth was calculated relative to vehicle (DMSO) treated control wells. […] EOHSA at each dose was calculated as the minimum difference in average % inhibition between the combination and each monotherapy, from the appropriate ANOVA contrast. […] The p-values for both synergy and antagonism were calculated using this adjustment.

lung_H1975 tumor cells = assay: Cell growth inhibition (CellTiter-Glo), H1975; format: cell-based; conditions: Homo sapiens, NCI-H1975, 72 h, 3 days

| pIC50 ([1]; gastric_N87, +HGF (2 ng/mL)) | pIC50 ([1]; gastric_N87, −HGF) | pIC50 (lung_H1975 tumor cells; lung_H1975, +HGF (2 ng/mL)) | pIC50 (lung_H1975 tumor cells; lung_H1975, −HGF) | SMILES | apoptosis induction (DNA fragmentation and caspase 3/7 activation) (BT474-J4 cells) |
| --- | --- | --- | --- | --- | --- |
| 5.32 | 7.30 |  |  | CS(=O)(=O)CCNCc1ccc(-c2ccc3ncnc(Nc4ccc(OCc5cccc(F)c5)c(Cl)c4)c3c2)o1 [Lapatinib, N-(3-chloro-4-{[(3-fluorophenyl)methyl]oxy}phenyl)-6-[5-({[2-(methylsulfonyl)ethyl]amino}methyl)-2-furanyl]-4-quinazolinamine] | only in BT474 |
|  |  | < 5.00 | < 5.00 | C#Cc1cccc(Nc2ncnc3cc(OCCOC)c(OCCOC)cc23)c1 [Erlotinib, N-(3-ethynylphenyl)-6,7-bis{[2-(methyloxy)ethyl]oxy}-4-quinazolinamine] |  |
